Measured values: patent US10920265B2, “Compounds and methods for detection of enzymes that remove methyl succinyl groups from epsilon-amino lysine moieties” (Enzo Life Sciences, Inc., priority 2011, dated 2021)

What was measured:
Format in all cases: biochemical
HDAC2 = target: T1, HDAC2 (Homo sapiens, UniProt Q92769); test: HDAC activity with fluorogenic lysyl substrates; conditions: 50 μM substrate
T1 construct: purchased ENZO Life Sciences BML-SE500
Experimental: The Ac-Lys(Succ.)-AMC substrate was tested for activity with recombinant preparations of human HDACs 1-11, SIRTs 1-4, 6 and 7, a complex of HDAC3 with a fragment of the activating protein NCOR1 and with HeLa nuclear extract, a rich source of active HDACs in their native multiprotein complexes.
Enzyme and extract catalog products obtained from ENZO Life Sciences included: HDAC1 (Cat. # BML-SE456), HDAC2 (Cat. # BML-SE500), HDAC3 (Cat. # BML-SE507), HDAC3/NCOR1 Complex (Cat. # BML-SE515), HDAC6 (Cat. # BML-SE508), HDAC8 (Cat. # BML-SE145), HDAC10 (Cat. # BML-SE559), HDAC11 (Cat. # BML-SE560), SIRT1 (Cat. # BML-SE239), SIRT2 (Cat. # BML-SE251), SIRT3 (Cat. # BML-SE270), SIRT5 (Cat. # BML-SE555), HeLa Nuclear Extract (Cat. # BML-KI140), Trypsin (“Fluor de Lys Developer”, 80 mg/ml bovine trypsin in 1 mM HCl, Cat. # BML-KI105 or “Fluor de Lys Developer II”, 80 mg/ml bovine trypsin in 1 mM HCl, Cat. # BML-KI176). […] Enzymes obtained from BPS Bioscience, San Diego, Calif. included: human recombinants SIRT4 (Cat. #50015), SIRT6 (Cat. #50017), SIRT7 (Cat. #50018). HeLa whole cell extract was obtained from HeLa S3 cells (American Type Culture Collection) grown in a medium of MEM/10% fetal bovine serum (FBS) as follows: 1) 9×10^6 cells were suspended by trypsinization, followed by a phosphate buffered saline (PBS) rinse and addition of MEM/10% FBS (1.5 mL) to eliminate trypsin before transfer to a 15 mL conical tube; 2) cells were sedimented by a low speed centrifugation, gently resuspended in PBS and sedimented again and supernatant removed; 3) lysis was induced by resuspension in 0.8 mL 50 mM Tris/HCl, pH 8.0 with the non-denaturing detergent NP-40 (0.5%), placement on ice and brief vortexing every 5 min. for 30 min.; 4) 100 μl of a concentrated salt solution in the same buffer was added in order to bring the final buffer composition to 50 mM Tris/C1, pH 8.0, 137 mM NaCl, 2.7 mM KCl, 1 mM MgCl2, 0.5% NP-40; 5) particulate matter was cleared by centrifugation and the cleared lysate supernatant transferred to a 1.5 mL Eppendorf tube and stored on ice until use in activity assays.
(§1) Assays were performed at 37° C., according to the manufacturer's instructions for the “SIRT1 Fluorometric Drug Discovery Kit” from Enzo Life Sciences (ELS) (Cat. # BML-AK555), with exceptions described as follows. Where indicated in figures and text, SIRT1 enzyme was replaced with another enzyme or extract and the “Fluor de Lys-SIRT1 Substrate” (Ac-Arg-His-Lys-Lys(Ac)-AMC; ELS Cat. # BML-KI-177) was replaced with another acetylated, succinylated or trifluoroacetylated substrate.

SIRT5 [1] = target: T2, SIRT5 (Homo sapiens, UniProt Q9NXA8); test: SIRT5 desuccinylation/deacetylation of fluorogenic lysyl substrates, trypsin developer; set-up: purchased Enzo Life Sciences BML-SE555
T2 sequence (Q9NXA8 37-310): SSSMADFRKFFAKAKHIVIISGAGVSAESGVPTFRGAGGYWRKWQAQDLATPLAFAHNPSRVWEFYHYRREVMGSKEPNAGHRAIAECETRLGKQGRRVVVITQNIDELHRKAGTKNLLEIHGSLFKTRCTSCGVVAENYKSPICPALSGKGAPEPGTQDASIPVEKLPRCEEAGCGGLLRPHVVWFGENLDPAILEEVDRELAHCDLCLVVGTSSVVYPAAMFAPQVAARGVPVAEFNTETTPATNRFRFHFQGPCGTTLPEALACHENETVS
Experimental: FIG. 3 is graphs showing that SIRT5 catalyzes NAD^+-dependent desuccinylation of Ac-Lys(ε-succinyl)-AMC far more efficiently than NAD^+-dependent deacetylation of Ac-Arg-His-Lys-Lys(ε-acetyl)-AMC. Fifty μl reactions in Assay Buffer (50 mM Tris/HCl, pH 8.0, 137 mM NaCl, 2.7 mM KCl, 1 mM MgCl2, 1 mg/ml BSA) included 50 μM of either Ac-Lys(ε-succinyl)-AMC or Ac-Arg-His-Lys-Lys(ε-acetyl)-AMC, and, where indicated, 500 μM NAD^+ and 5 μg recombinant human SIRT5 (Enzo Life Sciences Cat. # BML-SE555). […] AMC fluorescence was read in a Cytofluor II plate-reading fluorimeter (Perseptive Biosystems) at wavelengths 360 nm (excitation)/460 nm (emission), Gain 54. Data represent the mean of two (No Enzyme) or three (+SIRT5) determinations and error bars the standard deviations. Panels A and B present the same data, but with the +SIRT5/+NAD^+/Ac-Lys(ε-succinyl)-AMC bar omitted from B to show the detail on the remaining bars. Statistically significant differences (Student's t-test) are indicated by asterisks as follows: *: p<0.02 vs. corresponding No Enzyme control; **: p<0.001 vs. corresponding −NAD^+ control; ***: p<3×10^−6 vs. both No Enzyme and −NAD^+ controls.
FIG. 4 is a graph showing that Ac-Lys(Succ.)-AMC enables SIRT5 assay at low enzyme concentrations. Fifty μl reactions in Assay Buffer (50 mM Tris/HCl, pH 8.0, 137 mM NaCl, 2.7 mM KCl, 1 mM MgCl2, 1 mg/ml BSA) included 2 or 10 μM Ac-Lys(ε-succinyl)-AMC, 500 μM NAD^+ and, where indicated, 5 ng recombinant human SIRT5 (Enzo Life Sciences Cat. # BML-SE555). […] AMC fluorescence was read in a Synergy 2 plate-reading fluorimeter (BioTek) at wavelengths 360 nm (excitation)/460 nm (emission), Gain 40. Data represent the mean of two (No Enzyme) or three (5 ng SIRT5) determinations and error bars the standard deviations. Statistically significant differences (Student's t-test) are indicated by asterisks as follows: *: p=0.002; **: p=0.009, each with respect to the corresponding “No SIRT5” samples.
FIG. 5 is graphs showing dependence of SIRT5 initial rate kinetics on the concentrations of Ac-Lys(Succ.)-AMC and Ac-Lys(Ac.)-AMC. Fifty μl desuccinylation or deacetylation reactions were performed as described earlier (FIG. 4), with the indicated concentrations of Ac-Lys(Succ.)-AMC or Ac-Lys(Ac.)-AMC and 1 mM NAD^+, for 20 min. at 37° C. Reactions with Ac-Lys(Succ.)-AMC contained 10 ng SIRT5 and those with Ac-Lys(Ac.)-AMC contained 5 SIRT5. Reactions were stopped and AMC cleaved from deacetylated or desuccinylated substrate by trypsin treatment as described earlier (FIG. 4). AMC fluorescence was read in a Synergy 2 plate-reading fluorimeter (BioTek) at wavelengths 360 nm (excitation)/460 nm (emission), Gain 40. Data represent the mean of the differences of three determinations with enzyme (10 ng or 5 SIRT5) from the mean of two no enzyme samples for each substrate concentration. Error bars are the standard deviations from those means. Fluorescence differences were converted to specific activities (pmol/min/μg) by measuring the fluorescence increase due to the addition a standard solution of AMC (5 μl of a […]).
FIG. 6 is a graph showing the dependence of SIRT5 initial rate kinetics of Ac-Lys(Succ.)-AMC desuccinylation on the concentration of NAD^+. Reaction conditions were as described for FIG. 5 but with a constant Ac-Lys(Succ.)-AMC concentration of 0.5 mM and the indicated concentrations of NAD^+. Data analysis and determination of kinetic parameters were as described (FIG. 5).
FIG. 12 is graphs showing that SIRT5 catalyzes NAD^+-dependent desuccinylation of (Ac-Lys(Succ.))2-R110 far more efficiently than NAD^+-dependent deacetylation of (Ac-Lys(Ac.))2-R110. Fifty μl reactions in Assay Buffer (50 mM Tris/HCl, pH 8.0, 137 mM NaCl, 2.7 mM KCl, 1 mM MgCl2, 1 mg/ml BSA) included 50 μM of either (Ac-Lys(Succ.))2-R110 or (Ac-Lys(Ac.))2-R110, and, where indicated, 500 μM NAD^+ and 5 μg recombinant human SIRT5 (Enzo Life Sciences Cat. # BML-SE555). […]

[2] = target: T3, bovine pancreatic trypsin (Bos taurus, UniProt P00760); test: Trypsin release of AMC from lysyl-AMC compounds; conditions: 1 μM compound, trypsin 2 mg/ml, room temperature
T3 construct: purchased ENZO Life Sciences BML-KI105 or BML-KI176; host or cells: bovine pancreas
T3 sequence (P00760 24-246): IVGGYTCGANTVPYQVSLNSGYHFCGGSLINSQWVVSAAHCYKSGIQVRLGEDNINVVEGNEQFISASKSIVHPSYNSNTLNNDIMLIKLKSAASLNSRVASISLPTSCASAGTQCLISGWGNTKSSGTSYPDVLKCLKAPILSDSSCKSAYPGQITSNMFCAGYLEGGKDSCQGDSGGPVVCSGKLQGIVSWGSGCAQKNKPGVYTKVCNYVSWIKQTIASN
Experimental: FIG. 2 is a graph showing that trypsin treatment releases fluorescent AMC from Ac-Lys-AMC but not Ac-Lys(Succinyl)-AMC. Samples (100 μl) of 1 μM Ac-Lys-AMC and 1 μM Ac-Lys(Succinyl)-AMC in a buffered solution (50 mM Tris/HCl, pH 8.0, 137 mM NaCl, 2.7 mM KCl, 1 mM MgCl2) were treated with bovine pancreatic trypsin (2 mg/ml) for the indicated times at room temperature. Samples were in the wells of a 96-well, ½-area white microplate and fluorescence was measured at 1 min. intervals at the excitation and emission wavelengths for free AMC (Excitation: 360 nm; Emission: 460 nm) in a Synergy 2 microplate reading fluorimeter (BioTek), Gain 40. The data points at 0 min. represent the fluorescence of equivalent 1 μM Ac-Lys(Succ.)-AMC and 1 μM Ac-Lys-AMC samples in the absence of trypsin.
As noted in the Background of the Invention section above, the protease trypsin catalyzes the hydrolytic cleavage of amide bonds on the carboxyl side of unmodified lysine residues. Hydrolytic cleavage of lysyl amide bonds with AMC or rhodamine 110 (dye components of Compounds 1 and 2, respectively) releases the free amino forms of the dyes. This elicits an upward shift of the dye's fluorescence emission peak wavelength (bathochromic shift), for example to 460 nm for AMC or 530 nm for rhodamine 110. If succinylation of the ε-amino function of the lysine moieties in compounds such as 1 and 2 renders the amide bond between the carbonyl of lysine and the amino of dye groups such as AMC or rhodamine resistant to trypsin cleavage then, upon desuccinylation, the lysine/dye amide bond would become cleavable by trypsin. Note that removal of a single succinyl group from 2, followed by cleavage of the desuccinylated lysine would yield a compound with a single free amino function, Ac-K(Succ.)-R110. Monoamides of rhodamine 110 also have increased fluorescence emission at 530 nm relative to 2, although they are less fluorescent than rhodamine 110 itself (Liu et al., 1999). Thus, monitoring the fluorescence at the peak wavelength of the amino form of the dye would allow the desuccinylation reaction to be quantified. A schematic for such an assay is depicted for Compound 1 and SIRT5 in FIG. 1. Trypsin treatment (2 mg/ml) elicits an immediate increase in the fluorescence of a solution of Ac-Lys-AMC (Compound 6—FIG. 1) at the excitation and emission wavelengths of free AMC (Ex. 360 nm; Em. 460 nm), with maximum fluorescence achieved in 2 min. or less and ˜⅔ of that maximum occurring in 1 min. (FIG. 2).

SIRT5 [3] = target: T2, SIRT5; test: Inhibition of SIRT5 desuccinylation of Ac-Lys(Succ.)-AMC; set-up: purchased Enzo Life Sciences BML-SE555; conditions: three parameter Hill-Slope model, bottom fixed at 0
Source text: Signal development (trypsin treatment) and fluorescence readings were done as described, as were the conversion of fluorescence increases to rates in units of pmol/min/μg (FIG. 5). Data points represent the mean of three determinations and the error bars are the standard deviations from those means. The dose-response curve was derived from a least-squares fit to a three parameter Hill-Slope model (bottom fixed at 0 pmol/min/μg), y=top/(1+(x/IC50)^slope).
Data points represent the mean of three determinations and the error bars are the standard deviations from those means. The dose-response curve was derived from a least-squares fit to a three parameter Hill-Slope model (bottom fixed at 0 pmol/min/μg), y=top/(1+(x/IC50)^slope).
as §1

T1 sequence (Q92769 whole entry): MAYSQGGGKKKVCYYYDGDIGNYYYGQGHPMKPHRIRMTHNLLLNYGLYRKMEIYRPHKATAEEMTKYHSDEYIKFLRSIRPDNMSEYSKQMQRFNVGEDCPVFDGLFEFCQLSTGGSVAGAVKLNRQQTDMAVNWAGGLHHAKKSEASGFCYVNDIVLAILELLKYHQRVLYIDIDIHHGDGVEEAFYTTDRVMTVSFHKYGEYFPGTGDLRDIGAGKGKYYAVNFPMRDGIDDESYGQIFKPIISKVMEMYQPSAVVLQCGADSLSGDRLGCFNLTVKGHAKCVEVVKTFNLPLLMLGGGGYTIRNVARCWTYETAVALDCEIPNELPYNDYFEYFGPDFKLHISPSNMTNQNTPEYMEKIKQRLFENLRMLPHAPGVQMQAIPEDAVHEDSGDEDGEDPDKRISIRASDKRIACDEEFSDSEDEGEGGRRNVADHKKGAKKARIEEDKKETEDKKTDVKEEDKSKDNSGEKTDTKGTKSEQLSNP

CC(=O)NCCCCC(NC(C)=O)C(=O)Nc1ccc2c(c1)Oc1cc(NC(=O)C(CCCCNC(C)=O)NC(C)=O)ccc1C21OC(=O)c2ccccc21 (stereo not shown) [(Ac-Lys(Ac))2-R110, reference compound]
Activity (pmol/min/μg) (HDAC2): (Ac-Lys(Ac))2-R110/502 pmol/min/μg

CC(=O)NC(CCCCNC(=O)CCC(=O)O)C(=O)Nc1ccc2c(c1)Oc1cc(NC(=O)C(CCCCNC(=O)CCC(=O)O)NC(C)=O)ccc1C21OC(=O)c2ccccc21 (stereo not drawn) [Compound 2, N,N′-Bis(α-acetyl-Lysine(ε-succinyl))-rhodamine 110]
SIRT5/NAD^+ dependence of desuccinylation (SIRT5 [1]; 5 μg SIRT5, 50 μM substrate, 500 μM NAD^+, 60 min.): desuccinylated by SIRT5 in a time and NAD^+-dependent manner

NC(=O)c1ccc[n+]([C@@H]2O[C@H](COP(=O)([O-])OP(=O)(O)OC[C@H]3O[C@@H](n4cnc5c(N)ncnc54)[C@H](O)[C@@H]3O)[C@@H](O)[C@H]2O)c1 [NAD^+]
Km (SIRT5 [1]; varied substrate: NAD^+, constant 0.5 mM Ac-Lys(Succ.)-AMC): 360 µM

CC(=O)N[C@@H](CCCCN)C(=O)Nc1ccc2c(C)cc(=O)oc2c1 [Compound 6, N-(α-acetyl-Lysine)-AMC, reference compound]
Fraction of maximum fluorescence at 1 min. [2]: ⅔ | Time to maximum fluorescence on trypsin treatment [2]: ≤ 2 min

NC(=O)c1cccnc1 [nicotinamide]
slope (fitted parameter of dose-response curve) (SIRT5 [3]): 0.98 | top (fitted parameter of dose-response curve) (SIRT5 [3]): 90.2 pmol/min/µg
